Legend:
dd strain male mice = experiment: Acute toxicity, oral administration, deaths counted over one week; assay type: in vivo; conditions: Dose: 1500mg/kg, observed for a week
[1] = system: carrageenin-induced paw edema; experiment: Effect on carrageenin-induced paw edema (anti-inflammatory effect), method of Winter et al.; assay type: in vivo, Wistar strain male rats; conditions: Rattus norvegicus, oral, 1 hour before 1% carrageenin, paw volume 3 hours after injection, Wistar male rats, read-out: Anti-inflammatory Effect Inhibition Rate (%)
Procedure: (2) Effect on carrageenin-induced paw edema (Anti-inflammatory Effect)
This test was conducted according to the method by Winter et al.[Winter C.A. et al.: Proc. Soc. Exptl.
As the animals to be tested, groups of 5 - 10 Wistar strain male rats weighing 140 ± 10 g were used, and a 1% carrageenin solution was employed as the phlogistic agent. The compound to be tested was - orally administered to the animals, and an hour later, 0.1 ml of the phlogistic agent was injected subcutaneously to the right hind paw, to induce edema.
The volume of the paw was measured before the injection of the phlogistic agent and 3 hours after the injection, and based on these volume measurements, the edema rate was calculated from the following equation: [formula]
Vn: The volume before the phlogistic agent treatment.
Vt: The volume after the phlogistic agent treatment.
The effect was determined, compared with the control group, the group to which the compound to be tested was not administered and expressed in terms of the inhibition rate of edema. The inhibition rate was calculated from the following equation.
Ec: The average edema rate of the control group.
Et: The average edema rate of the group to which the compound to be tested was administered...

acetic acid writhing = experiment: Analgesic effect, acetic acid writhing method (Koster et al.); assay type: in vivo, dd strain male mice; conditions: Mus musculus, oral, 60 minutes before 0.7% acetic acid i.p., number of writhes, dd male mice, read-out: Analgesic Effect Inhibition Rate (%)
Procedure: (3) Analgesic Effect (Acetic Acid Writhing Method) This was done according to the method by Koster, et al Federation Proc. 18, 412 (1959)]. The animals to be tested were groups of 10 dd strain male nice weighing 20 ± 1 g. The compound to be tested .was administered orally, and 60 minutes after the administration, 0.2 ml of a 0.7% acetic acid solution ,vas administered intraperitoneally. For a period of 10 minutes from […] minutes after the administration of said acetic acid solution, the number of writhes was measured and the average number was determined. The unhibition rate (%) was calculated from the following equation. [formula] Ec: The average number of writhes in the control group. Et: The average number of writhes in the group to which the compound to be tested was administered.

Row | Structure (SMILES) | Acute Toxicity Nos. of Deaths/ Nos. of Tests (dd strain male mice) | inhibition in vivo at 100 mg/kg [1] [%] | inhibition in vivo at 100 mg/kg (acetic acid writhing) [%]
1 | COc1ccc(C(=O)Nc2cccc(F)c2)cc1N [Compound 1, 3-Amino-3'-fluoro-4-methoxy-benzanilide] | 0/6 | 64.3 | 41.9
2 | COc1ccc(C(=O)Nc2cccc(C(F)(F)F)c2)cc1N [Compound 2, 3-Amino-3'-trifluoro-methyl-4-benzanilide] | 0/6 | 38.8 | 48.8
3 | COc1ccc(C(=O)Nc2cc(C(F)(F)F)cc(C(F)(F)F)c2)cc1N [Compound 3, 3-Amino-3',5'-ditrifluoro-methyl-4-methoxy-benzanilide] | 0/6 | 16.9 | 24.6
4 | COc1ccc(C(=O)Nc2ccc(Cl)cc2C(F)(F)F)cc1N [Compound 4, 3-Amino-2'-trifluoro-methyl-4'-chloro-4-methoxy-benzanilide] | 0/6 | 8.7 | 34.8
5 | COc1ccc(C(=O)Nc2cc(C(F)(F)F)ccc2Cl)cc1N [Compound 5, 3-Amino-2'-chloro-5'-tri-fluoromethyl-4-methoxy-benzanilide] | 0/6 | 0 | 52.3
6 | COc1ccc(C(=O)Nc2ccccc2)cc1N [Compound 6, 3-Amino-4-methoxy-benzanilide] | 0/5 | 55.9 | 43.4
7 | COc1ccc(C(=O)Nc2ccc(Cl)cc2Cl)cc1N [Compound 7, 3-Amino-2',4'-dichloro-4-methoxy-benzanilide] | 0/6 | 5.5 | 40.2
8 | COc1ccc(C(=O)Nc2c(C)cccc2C)cc1N [Compound 8, 3-Amino-2',6'-dimethyl-4-methoxy-benzanilide] | 0/6 | 19.5 | 45.7
9 | CC(C)Cc1ccc(C(C)C(=O)O)cc1 (stereo not drawn) [Ibuprofen, α-methyl-4-(2-methylpropyl) benzene acetic acid, reference compound] | 2/5 | 68.4 | 16.3
10 | COc1cc(C)nc(-n2nc(C)cc2OC)n1 [Mepirizole, 4-methoxy-2-(5-methoxy-3-meLhylpyrazol-1-yl)-6-methylpyrimidine, reference compound] | 2/2 | 29.2 | 44.6
